Assay results from patent US7399760B2, “Pyrimidinedione derivatives” (Bexel Pharmaceuticals Inc., priority 2002, dated 2008).

What was measured:
TNF-α = TNF-α production from LPS-stimulated human monocytes (ELISA); assay type: cell-based; details: Monocyte, Conc. 10 μM
Description: (§1) This assay determines the effect of test compounds on the production of TNF-α from human monocytes. Compounds were tested for their ability to downregulate the production of TNF-α in activated monocytes. Test compounds were incubated for three, six and twenty four hours with human monocytes. Lipopolysaccharide was used to stimulate the monocytes. The level of TNF-α was quantitated using Enzyme-Linked Immunosorbent assay performed in a 96 well format.

IL-6 = IL-6 production from LPS-stimulated human monocytes (ELISA); assay type: cell-based; details: Monocyte, Conc. 10 μM
Description: as §1, with “of IL-6” for “of TNF-α”, “Compounds are” for “Compounds were”, “of Interleukin-6 is” for “of TNF-α was”

COX-2 = biological target: T1, COX-2 (Homo sapiens, UniProt P35354); assay: Human whole blood assay, COX-2 inhibition (PGE2 ELISA after LPS); assay type: cell-based; details: Conc. 1 μM, aspirin-treated, LPS 10 μg/ml, 24 h at 37° C., PGE2 in plasma
T1 construct: incubation of human blood with lipopolysaccharide (LPS), which induces COX-2 production in the blood; endogenous in cells; host or cells: fresh human whole blood from male volunteers, treated with aspirin and then LPS
T1 sequence (P35354 18-604): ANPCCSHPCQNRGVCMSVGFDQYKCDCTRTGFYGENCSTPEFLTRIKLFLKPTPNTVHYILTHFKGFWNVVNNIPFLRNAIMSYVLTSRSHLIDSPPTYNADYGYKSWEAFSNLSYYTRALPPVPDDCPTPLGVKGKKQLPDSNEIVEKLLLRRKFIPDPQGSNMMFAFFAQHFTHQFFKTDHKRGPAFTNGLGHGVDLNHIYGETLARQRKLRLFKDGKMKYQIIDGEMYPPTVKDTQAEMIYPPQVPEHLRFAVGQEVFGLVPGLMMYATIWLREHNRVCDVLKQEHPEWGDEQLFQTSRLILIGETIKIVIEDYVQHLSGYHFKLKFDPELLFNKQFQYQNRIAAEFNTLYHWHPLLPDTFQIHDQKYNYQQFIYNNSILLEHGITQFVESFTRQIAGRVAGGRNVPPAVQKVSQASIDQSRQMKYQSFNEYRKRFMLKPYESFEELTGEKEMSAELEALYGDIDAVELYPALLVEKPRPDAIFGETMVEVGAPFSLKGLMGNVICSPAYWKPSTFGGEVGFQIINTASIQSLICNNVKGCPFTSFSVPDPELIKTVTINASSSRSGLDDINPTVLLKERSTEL
Description: The COX-2 inhibition activity of the compounds illustrated in the examples was determined by the following method.
Human whole blood provides a protein and cell rich milieu appropriate for the study of biochemical efficacy of anti-inflammatory compounds such as selective COX-2 inhibitors. […] This is correlating with the observation that COX-2 inhibitors have no effect on prostaglandin E2 (PGE2) production in normal blood. These inhibitors are active only after incubation of human blood with lipopolysaccharide (LPS), which induces COX-2 production in the blood.
Fresh blood was collected in tubes containing potassium EDTA by vein puncture from male volunteers. The subjects should have no apparent inflammatory conditions and not taken NSAIDs for atleast 7 days prior to blood collection. Blood was treated with aspirin in vitro (10 μg/ml, at time zero) to inactivate COX-1, and then with LPS (10 μg/ml) along with test agents or vehicle. The blood was incubated for 24 h at 37° C., after which the tubes were centrifuged, the plasma was separated and stored at −80° C. (J Pharmacol Exp Ther 271, 1705, 1994; Proc Natl Acad Sci USA 96, 7563, 1999). The plasma was assayed for PGE2 using Cayman ELISA kit as per the procedure outlined by the manufacturer (Cayman Chemicals, Ann Arbor, USA). […]

SMILES	melting point	inhibition at 1 µM (COX-2)	inhibition at 10 µM (TNF-α)	inhibition at 10 µM (IL-6)
CSc1ccc(-n2c(-c3ccccc3)cc(=O)[nH]c2=O)cc1 [Example 1, 1-(4-methylsulfanyl-phenyl)-6-phenyl-1H-pyrimidin-2,4-(1H)-dione]	239 to 242 °C (dec.)	–	48.5%	80.6%
CSc1ccc(-n2c(-c3ccc(Cl)cc3)cc(=O)[nH]c2=O)cc1 [Example 3, 1-(4-methylsulfanyl-phenyl)-6-(4-chlorophenyl)-1H-pyrimidin-2,4-(1H)-dione]	249 to 251 °C	–	–	–
CSc1ccc(-c2cc(=O)[nH]c(=O)n2-c2ccc(C)cc2)cc1 [Example 4, 1-(4-methylphenyl)-6-(4-methylsulfanyl-phenyl)-1H-pyrimidin-2,4-(1H)-dione]	266 to 268 °C	–	–	–
CSc1ccc(-n2c(-c3ccc(C)cc3)cc(=O)[nH]c2=O)cc1 [Example 2, 1-(4-methylsulfanyl-phenyl)-6-(4-methylphenyl)-1H-pyrimidin-2,4-(1H)-dione]	235 to 238 °C	–	69.3%	78.6%

The next lines start with results.

melting point	inhibition at 1 µM (COX-2)	SMILES	inhibition at 10 µM (TNF-α)	inhibition at 10 µM (IL-6)
282 to 285 °C	–	CSc1ccc(-c2cc(=O)[nH]c(=O)n2-c2ccc(Br)cc2)cc1 [Example 5, 1-(4-bromophenyl)-6-(4-methylsulfanyl-phenyl)-1H-pyrimidin-2,4-(1H)-dione]	–	–
283 to 287 °C (dec.)	–	CS(=O)(=O)c1ccc(-n2c(-c3ccccc3)cc(=O)[nH]c2=O)cc1 [Example 6, 1-(4-methylsulfonyl-phenyl)-6-phenyl-pyrimidin-1H-pyrimidin-2,4-(1H)-dione]	43.2%	75.3%
285 to 288 °C	40.8%	Cc1ccc(-c2cc(=O)[nH]c(=O)n2-c2ccc(S(C)(=O)=O)cc2)cc1 [Example 7]	57.6%	81.3%
294 to 298 °C	–	CS(=O)(=O)c1ccc(-n2c(-c3ccc(Cl)cc3)cc(=O)[nH]c2=O)cc1 [Example 8, 6-(4-chlorophenyl)-1-(4-methylsulfonyl-phenyl)-1H-pyrimidin-2,4-(1H)-dione]	–	–
